Source: US11000515B2, “Compounds that interact with the Ras superfamily for the treatment of cancers, inflammatory diseases, rasopathies, and fibrotic disease” (Shy Therapeutics LLC, priority 2017, dated 2021)
Read-outs that look alike come from different tables or passages of the source. One block for each compound: values may come before it.

Experiments:
[1] = test system: MAPK phosphorylation in the PANC-1 pancreatic cancer cell line; experiment: MAPK cell-based phosphorylation assay (cell-direct ELISA, EGF-stimulated PANC-1); conditions: Homo sapiens; for inhibition at 30 µM: PANC-1, 6 hours incubation, EGF stimulation; for inhibition at 10 µM: tested at 10 μM (*), PANC-1
Description: Cell lines: Tumor-derived pancreatic cancer cell lines PANC-1 were purchased from ATCC and were maintained according to ATCC recommendation.
Method: Cells were plated at 7500 cells/well density in 96-wells plate, starved over night, and the small molecules to be tested were added to the cells in the final concentration of 30 μM with 0.3% DMSO for 6 hours incubation at 37° C. For IC50 value determination, serial dilutions of compounds were added to cells under the same conditions. Next, cells were stimulated with 1.5 ng/ml EGF for 15 min. followed by cell fixation with 4% Formaldehyde in PBS at RT for 20 min. Phosphorylation level of MAPK was determined by Cell-direct ELISA.
Cell-direct ELISA: For each well, cells were permeabilized with PBS-Triton 0.1%, quenched with H2O2 0.6% in PBS-Triton 0.1%, and probed with anti-phospho-MAPK antibodies (R&D Systems) followed by HRP-conjugated secondary antibody (Jackson Immunoresearch, West Grove, Pa.). Next, a solution 50 μM of the fluorescent substrate AmpliFlu Red (Sigma) was added and incubated at RT for 20 min. At the end of the incubation time, fluorescence was measured at 595 nm on a microplate reader (AF2200; Eppendorf, Inc., Hamburg, Germany).

[2] = test system: MIA-PACA2 pancreatic cancer cell lines; experiment: Cell proliferation assay, MIA-PACA2 (CellTiter 96 AQueous One, 6 days); format: cell-based; conditions: Homo sapiens, MIA PaCa-2, 144 h
Description: (§1) Cell lines: Tumor-derived pancreatic cancer cell lines MIA-PACA2 were purchased from ATCC and grown in complete DMEM-High Glucose medium supplemented with penicillin (100 U/mL), streptomycin (100 μg/mL), and 10% heat-inactivated FBS at 37° C. in a humidified incubator with 5% CO2.
Method: Cells are plated at 1000 cells/well density in 96-wells plate, starved ON, and the next day tested small molecules are added to the cells in the final concentration of 30 μM with 0.3% DMSO 3 hours prior to 10% FBS addition. After serum addition cells are incubated for 6 days at 37° C. in a humidified incubator with 5% CO2. For IC50 value determination, serial dilutions of compounds were added to cells under the same conditions.
Assay: At the end of the incubation period, cell cultures are tested using the CellTiter 96® AQueous One Solution Cell Proliferation Assay kit (Promega Corporation, Madison, Wis.) according to the manufacturer specifications. Briefly, assay is performed by adding 20 μl of the CellTiter 96 Aqueous One Solution Reagent directly to culture wells, followed by for 1-4 hours incubation at 37° C. in a humidified incubator with 5% CO2. At the end of incubation time, absorbance at 492 nm is recorded with the 96-well plate reader Eppendorf AF2200, and degree of small molecule-dependent proliferation inhibition is calculated from raw data assuming No Serum cells value as 100%.

[3] = test system: MIA-PACA2 pancreatic cancer cell lines; experiment: Cell proliferation assay, MIA-PACA2, alternate assay conditions (DAPI staining, 4 days); format: cell-based; conditions: Homo sapiens; for inhibition at 10 µM: MIA PaCa-2, 96 h, tested at 10 μM (*), 4 days, alternate conditions
Description: as §1
Method: Cells are plated at 4000 cells/well density in 96-wells plate. The next day tested small molecules are added to the cells in the final concentration of 10 μM in the presence of 0.3% DMSO and 10% FBS. After small molecules addition, cells are incubated for 4 days at 37° C. in a humidified incubator with 5% CO2. For IC50 value determination, serial dilutions of compounds were added to cells under the same conditions.
Assay: At the end of the incubation period, cell cultures are fixed with a 50-50 mixture (v/v) acetone-methanol for 10 minutes at −20° C., followed by rehydration in PBS for 10 minutes at room temperature. After rehydration, cells are stained with DAPI (1 μg/ml) in PBS for 10 minutes at room temperature, followed by 3 washes with PBS. After staining, DAPI fluorescence is recorded (358 nm excitation/461 nm emission) with the 96-well plate reader Molecular Devices Spectramax M3; degree of small mole-cule-dependent proliferation inhibition is calculated from raw data assuming No Serum cells value as 100%.

KRas G12D mutant protein = KRas G12D mutant protein (Homo sapiens (Human), UniProt P01116, G12D); experiment: Ras GTP binding domain inhibition assay (labeled GTP)
KRas G12D mutant protein, sequence (P01116-2 other isoform, or with tags, fused parts or gaps G12D): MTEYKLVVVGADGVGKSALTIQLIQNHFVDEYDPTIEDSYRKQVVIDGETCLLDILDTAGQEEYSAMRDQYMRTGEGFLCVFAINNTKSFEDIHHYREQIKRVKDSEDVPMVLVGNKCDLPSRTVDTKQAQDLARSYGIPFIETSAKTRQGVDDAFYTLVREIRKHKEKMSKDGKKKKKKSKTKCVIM
Description: The following method was developed as specific assay for KRas G12D mutant protein.
(§2) Buffer-I: • 50 mM Tris, pH 7.5 • 150 mM NaCl (optional) • 1 mM MgCl2 • 1 mM DTT. • KRas G12D mutant protein was expressed as a His-tagged protein. Purified His-KRas G12D protein was diluted in buffer-I to a final concentration of 3-10 μg/ml. • 200 μl of the diluted His-KRas G12D protein was added to a nickel coated 96 well plate and incubated overnight at 4° C. • The next day, wells were washed 3× in 200 μl of Buffer-I. • Then 200 μl of Buffer-I were added to each well in the presence of 1% DMSO. • Tested compounds were added to the protein-coated wells at a concentration of 20 μM, and incubated for 3 hours at room temperature. While performing IC50 measurements a serial dilution of all tested concentrations was prepared.
(§3) Then 22 μl of Cy3-GTP or Cy5-GTP was added to each well. The labeled GTP was incubated for 45 min. at room temperature. • Following GTP incubation, wells were washed 3× in Buffer-I, and 200 μl of Buffer-I were added to each well. • Following washes, the amount of bound labeled-GTP was measured with an Eppendorf AF2200 plate reader.

KRas G12C mutant = KRas G12C mutant (Homo sapiens (Human), UniProt P01116, G12C); experiment: as above
KRas G12C mutant, sequence (P01116-2 other isoform, or with tags, fused parts or gaps G12C): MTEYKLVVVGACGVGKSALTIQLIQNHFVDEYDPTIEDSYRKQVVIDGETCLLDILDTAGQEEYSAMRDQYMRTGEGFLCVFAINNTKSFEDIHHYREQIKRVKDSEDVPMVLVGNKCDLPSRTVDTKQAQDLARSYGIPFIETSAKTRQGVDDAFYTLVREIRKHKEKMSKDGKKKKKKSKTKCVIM
Description: as §2, §3
(§4) By substituting KRas G12D mutant protein with KRas G12C mutant, KRas wild type, KRas Q61H mutant, KRas G12D/Q61H double mutant or KRas G12C/Q61H double mutant under the assay conditions described above, KRas G12C mutant KRas wild type, KRas Q61H mutant, KRas G12D/Q61H double mutant and KRas G12C/Q61H double mutant inhibition, respectively, were each determined.

[4] = target: KRas G12C/Q61H double mutant (Homo sapiens (Human), UniProt P01116, G12C/Q61H); experiment: as above
KRas G12C/Q61H double mutant, sequence (P01116-2 other isoform, or with tags, fused parts or gaps G12C/Q61H): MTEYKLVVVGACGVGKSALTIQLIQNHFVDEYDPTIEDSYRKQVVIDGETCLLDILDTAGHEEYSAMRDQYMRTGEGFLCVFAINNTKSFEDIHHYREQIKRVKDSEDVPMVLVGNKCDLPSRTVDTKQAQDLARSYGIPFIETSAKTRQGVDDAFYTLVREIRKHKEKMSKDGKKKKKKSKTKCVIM
Description: as §2, §3, §4

[5] = target: KRas G12D/Q61H double mutant (Homo sapiens (Human), UniProt P01116, G12D/Q61H); experiment: as above
KRas G12D/Q61H double mutant, sequence (P01116-2 other isoform, or with tags, fused parts or gaps G12D/Q61H): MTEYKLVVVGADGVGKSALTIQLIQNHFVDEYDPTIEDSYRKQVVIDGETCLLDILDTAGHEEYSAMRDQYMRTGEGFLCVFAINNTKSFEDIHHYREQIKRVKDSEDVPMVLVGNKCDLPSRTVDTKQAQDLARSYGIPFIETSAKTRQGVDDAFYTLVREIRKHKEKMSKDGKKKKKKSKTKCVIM
Description: as §2, §3, §4

KRas Q61H mutant = KRas Q61H mutant (Homo sapiens (Human), UniProt P01116, Q61H); experiment: as above
KRas Q61H mutant, sequence (P01116-2 other isoform, or with tags, fused parts or gaps Q61H): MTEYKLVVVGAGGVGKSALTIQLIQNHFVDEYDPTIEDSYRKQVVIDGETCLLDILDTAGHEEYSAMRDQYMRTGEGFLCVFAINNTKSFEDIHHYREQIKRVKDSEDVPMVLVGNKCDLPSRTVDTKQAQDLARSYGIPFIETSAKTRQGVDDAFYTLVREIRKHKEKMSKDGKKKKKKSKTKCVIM
Description: as §2, §3, §4

KRas wild type = KRas wild type (Homo sapiens (Human), UniProt P01116); experiment: as above
KRas wild type, sequence (P01116-2 other isoform, or with tags, fused parts or gaps): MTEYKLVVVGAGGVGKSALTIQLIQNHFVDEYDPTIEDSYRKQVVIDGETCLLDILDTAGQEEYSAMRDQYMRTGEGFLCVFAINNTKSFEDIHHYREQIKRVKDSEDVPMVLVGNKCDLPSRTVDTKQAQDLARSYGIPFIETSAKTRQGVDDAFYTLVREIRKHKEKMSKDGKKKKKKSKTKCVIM
Description: as §2, §3, §4

Rac-1 = Rac-1 (Homo sapiens (Human), UniProt P63000); experiment: Rac and Rho inhibition assay (labeled GTP); format: binding; conditions: read-out: Rac-1 % Inh.
Rho-A = Rho-A (Homo sapiens (Human), UniProt P61586); experiment: Rac and Rho inhibition assay (labeled GTP); format: binding; conditions: read-out: Rho-A % Inh.
Rho-A, sequence (P61586 whole entry): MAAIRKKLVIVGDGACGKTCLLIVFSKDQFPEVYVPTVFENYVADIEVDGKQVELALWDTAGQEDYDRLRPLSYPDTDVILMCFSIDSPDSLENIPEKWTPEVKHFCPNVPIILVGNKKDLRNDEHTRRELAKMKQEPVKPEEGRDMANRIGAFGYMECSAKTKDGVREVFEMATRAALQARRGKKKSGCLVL

Structure (SMILES): Cc1nc(-c2ccccn2)nc(O)c1CCC(=O)Nc1ccc(C(C)C)cc1
inhibition at 30 µM [1]: 1 to 25%

Structure (SMILES): COC(=O)c1cc(NCc2nc(CC(C)C)no2)ccc1Cl
inhibition at 30 µM [1]: 1 to 25%

Structure (SMILES): N#Cc1ccc(CC(=O)Nc2ccnc(-c3ccccn3)n2)cc1
inhibition at 30 µM [1]: 1 to 25%

Structure (SMILES): COOCCCCNC(=O)c1csc2nc(-c3ccccn3)nc(N3CCOCC3)c12
inhibition at 30 µM [1]: 1 to 25%

Structure (SMILES): Oc1nc(-c2ccccn2)nc2c(-c3ccccn3)csc12
inhibition at 10 µM [1]: 76 to 100%

Structure (SMILES): COc1ccc(CCC(=O)Nc2nc(-c3ccccn3)nc3sccc23)cn1
inhibition at 10 µM [1]: 76 to 100%

Structure (SMILES): Cn1ccnc1-c1nc(O)c2scc(-c3cccc(OC(F)(F)F)c3)c2n1
inhibition at 10 µM [1]: 25 to 50%

Structure (SMILES): O=C(Nc1nnc(-c2ccccn2)[nH]1)c1ccc(Cc2ccccc2)nc1
inhibition at 30 µM [2]: 51 to 75%

Structure (SMILES): OCCn1ncc2c1CCCC2Nc1nc(-c2ccccn2)nc2scc(-c3ccccc3)c12 (stereo not shown)
inhibition at 30 µM [2]: 76 to 100%

Structure (SMILES): CN(CCCc1n[nH]c(N)c1C#N)c1nc(-c2ccccn2)nc2sc(-c3ccccc3)cc12
inhibition at 30 µM [2]: 76 to 100%

Structure (SMILES): NC(=O)C1CCN(c2nc(-c3ccccn3)nc3scc(-c4ccccc4)c23)CC1
inhibition at 30 µM [2]: 76 to 100%

Structure (SMILES): COc1cnc(CN)[nH]c1=O
inhibition at 30 µM [2]: 51 to 75%

Structure (SMILES): O=C(CCn1ccnc1)Nc1nc(-c2ccccn2)nc2sccc12
inhibition at 30 µM [2]: 76 to 100%

Structure (SMILES): Oc1cccc(-c2csc3c(O)nc(-c4ccccn4)nc23)n1
inhibition at 10 µM [3]: 76 to 100%

Structure (SMILES): COCC(C)Nc1nc(-c2ncccn2)nc2sc(-c3ccncc3)c(-c3ccccc3)c12 (stereo not shown)
inhibition at 10 µM [3]: 51 to 75%

Structure (SMILES): Cc1cccc(-c2c(-c3ccccc3)sc3c(O)nc(-c4nccn4C)nc23)c1
inhibition at 10 µM [3]: 25 to 50%

IC50 ([3]; MIA PaCa-2, same assay as % inhibition: alternate conditions): 501 to 1000 nM
Structure (SMILES): COc1ccc(-c2c(-c3ccccc3)sc3c(O)nc(-c4cccn4C)nc23)cn1
inhibition at 10 µM [3]: 76 to 100%

inhibition at 20 µM (KRas G12D mutant protein; compound at 20 μM): 51 to 75%
inhibition at 20 µM (KRas G12C mutant; compound at 20 μM): 25 to 50%
inhibition at 20 µM ([4]; compound at 20 μM): 51 to 75%
inhibition at 20 µM ([5]; compound at 20 μM, read-out: % Inhibition at 20 μM, KRas G12D Q61H): 51 to 75%
inhibition at 20 µM (KRas Q61H mutant; compound at 20 μM): 51 to 75%
inhibition at 20 µM (KRas wild type; compound at 20 μM): 51 to 75%
Structure (SMILES): O=C(CCC1N=NN=N1)Nc1nc(-c2ccccn2)nc2sccc12

inhibition at 20 µM (Rac-1): 51 to 75%
inhibition at 20 µM (Rho-A): 25 to 50%
Structure (SMILES): COc1ccnc(-c2nc(O)c3c(C#N)csc3n2)c1

inhibition at 20 µM ([5]; at 20 μM, read-out: KRas Gl2D Q61H % Inh.): 25 to 50%
inhibition at 20 µM (Rac-1): 51 to 75%
inhibition at 20 µM (Rho-A): 51 to 75%
Structure (SMILES): COC1CN=C(CNC(=O)c2cc3nc(-c4ccccn4)nc(O)c3s2)NC1=O (stereo not shown)

inhibition at 20 µM (Rac-1): 51 to 75%
inhibition at 20 µM (Rho-A): 76 to 100%
Structure (SMILES): COc1ccc(COC[C@H]2O[C@@H](c3csc4c(=O)[nH]c(-c5ccccn5)nc34)[C@H](O)[C@@H]2O)cc1

inhibition at 20 µM (KRas G12D mutant protein; 20 μM compound): 25 to 50%
inhibition at 20 µM (KRas G12C mutant; 20 μM compound): 25 to 50%
inhibition at 20 µM ([4]; 20 μM compound): 51 to 75%
inhibition at 20 µM ([5]; 20 μM compound, read-out: % Inhibition at 20 μM, KRas G12D Q61H): 51 to 75%
inhibition at 20 µM (KRas Q61H mutant; 20 μM compound): 51 to 75%
inhibition at 20 µM (KRas wild type; 20 μM compound): 25 to 50%
Structure (SMILES): CCC(C)c1csc2c(O)nc(-c3ccccn3)nc12 (stereo not shown) [drawing 3492]
